The source of these data is patent EP0700399B1, “36-DERIVATIVES OF RIFAMYCINS AND THEIR USE AS ANTIMICROBIAL AGENTS” (GRUPPO LEPETIT S.P.A., priority 1993, dated 1994).

Holding throughout (assay): MIC by broth microdilution
The subject of assay [1] is Neisseria gonorrhoeae. Type of assay: cell-based. Conditions: Neisseria gonorrhoeae; internal code L997; 5% carbon dioxide, 48 hours; read-out: MIC of the compounds.
For assay [2], the system named is Streptococcus pyogenes. Type of assay: cell-based. Conditions: Streptococcus pyogenes; internal code L49; read-out: MIC of the compounds.
Assay [3] concerns Esch. coli K12 rifa-r^(1). The format is cell-based, Escherichia coli. Conditions: Escherichia coli, read-out: MIC of the compounds.
Assay [4] relates to Propionibact. acnes ATCC 6919. The format is cell-based, Propionibacterium acnes. Conditions: Cutibacterium acnes, ATCC6919; internal code L1014; anaerobic, 48 hours; read-out: MIC of the compounds.
Assay [5] relates to Escherichia coli. The format is cell-based. The following applies: Escherichia coli; internal code L47; read-out: MIC of the compounds.
In assay [6] the test system is Staph. aureus rifa-r^(2). The format is cell-based. The following applies: Staphylococcus aureus, read-out: MIC of the compounds.
Assay [7] relates to Pseudomonas aerug. ATCC10145. Type of assay: cell-based, Pseudomonas aeruginosa. Conditions: Pseudomonas, ATCC10145; internal code L4; read-out: MIC of the compounds.
For assay [8], the system named is Staph. haemolyticus rifa-r^(2). Type of assay: cell-based. Conditions: Staphylococcus haemolyticus, read-out: MIC of the compounds.
In assay [9] the test system is Staph. epidermidis ATCC 12228. Type of assay: cell-based. The following applies: Staphylococcus epidermidis, ATCC12228; internal code L147; read-out: MIC of the compounds.
Assay [10] relates to Bacteroides fragilis ATCC 23745. The format is cell-based. Conditions: Bacteroides fragilis, ATCC23745; internal code L1010; anaerobic, 48 hours; read-out: MIC of the compounds.
Assay [11] has as its system Proteus vulgaris ATCC 881. Type of assay: cell-based. The following applies: Proteus vulgaris, ATCC881; internal code L79; read-out: MIC of the compounds.
Assay [12] relates to Enterococc. faecalis ATCC 7080. The format is cell-based, Enterococcus faecalis. Conditions: Enterococcus faecalis, ATCC7080; internal code L149; read-out: MIC of the compounds.
The test system of assay [13] is Haemoph. influenzae ATCC 19418. Type of assay: cell-based, Haemophilus influenzae. The following applies: Haemophilus influenzae, ATCC19418; internal code L970; 5% carbon dioxide, 48 hours; read-out: MIC of the compounds.
Assay [14] concerns Esch. coli K12 hyperpermeable. The format is cell-based, Escherichia coli. The following applies: Escherichia coli, read-out: MIC of the compounds.
Assay [15] has as its system Strept. pneumoniae. The format is cell-based. Conditions: Streptococcus pneumoniae; internal code L44; read-out: MIC of the compounds.
The subject of assay [16] is Staphylococcus aureus. Type of assay: cell-based. Conditions: Staphylococcus aureus; internal code L165; read-out: MIC of the compounds.
The test system of assay [17] is Esch. coli K12 wild type. The format is cell-based. Conditions: Escherichia coli, K12WILDTYPE, internal code G210, read-out: MIC of the compounds.

For `CO[C@H]1/C=C/O[C@@]2(C)Oc3c(C)c(O)c4c(c3C2=O)C(=O)C=C(NC(=O)/C(C)=C\C=C\[C@H](C)[C@H](O)[C@@H](C)[C@@H](O)[C@@H](C)[C@H](OC(=O)CI)[C@@H]1C)C4=O` [Compound C10, 36-Iodorifamycin S], the MIC in assay [1] is 16 µg/mL; in assay [2], 0.015 µg/mL; in [3], ≥ 128 µg/mL; in [4], 0.13 µg/mL; in assay [5], 64 µg/mL; in assay [6], 32 µg/mL. Moreover, the MIC in [7] is 32 µg/mL; in assay [8] it was 64 µg/mL; in [9], 0.06 µg/mL; in [10], 0.5 µg/mL; in assay [11], 32 µg/mL; in assay [12], 2 µg/mL. Also, the MIC in [13] was 4 µg/mL; in assay [14], 1 µg/mL; in assay [15], 0.03 µg/mL; in assay [16], 0.06 µg/mL; in assay [17], 128 µg/mL.
